The results in this text go back to patent publication US7807663B2, “Therapeutic agents for diabetes” (Ajinomoto Co., Inc., priority 2003, dated 2010).

In the experiment the test system is adipose cells of rats. In words: Evaluation of the sugar transportation activity (2-[14C(U)]-deoxy-D-glucose incorporation). Type of experiment: cell-based, Wistar rats. Particulars: concentration with reinforcing effect of 50% of that of insulin (100 nM) = 100%; rat adipose cells, 30 min pre-culture at 37° C., 5 min uptake. As for the experimental part: 1. Preparation of Adipose Cells of Rats:
After the decapitation and venesection of 6 male Wistar rats (body weight: 150 to 200 g), an incision was made in the abdomen of each rat to extract 6 g in total of epididymal adipose tissues. The tissues were finely cut into 2 mm×2 mm pieces in 6 ml of KRH (Krebs-Ringer Hepes, composition: 130 mM of sodium chloride, 4.7 mM of potassium chloride, 1.2 mM of potassium dihydrogenphosphate, 1.2 mM of magnesium sulfate, 1 mM of calcium chloride and 25 mM of Hepes, pH=7.6) containing 5% of BSA (bovine serum albumin). 24 mg of collagenase (type I) was added thereto and the digestion treatment was conducted for about 40 minutes to obtain about 6 ml of isolated adipose cells. The collagenase was removed by the buffer exchange. 2% BSA/KRH solution was added to the residue for the re-suspension to obtain 45 ml of an adipose cell suspension.
2. Evaluation of the Sugar Transportation Activity:
The sugar transportation activity of the compound (I) of the present invention was evaluated with reference to a method described in a literature [Annual Review of Biochemistry, Vol. 55, p. 1059 (1986)]. In the test, 200 μL of the adipose cell suspension was poured in each polystyrene test tube, 100 μL of the solution of the test substance (by dilution of 10 mg/mL dimethyl sulfoxide solution with KRH) was added thereto, and the obtained mixture was shaken and then cultured at 37° C. for 30 minutes. The sugar transportation activity was evaluated by measuring the quantity of 2-[^14C(U)]-deoxy-D-glucose incorporated per a unit time. Namely, 2-[^14C(U)]-deoxy-D-glucose was added to the adipose cell suspension after the pre-culture (the final concentration: 0.5 μCi/sample). 5 minutes after, cytochalasin B (final concentration: 10 μM) was added to the mixture to terminate the sugar transportation. After forming a dinonyl phthalate layer, the obtained mixture was centrifuged to separate the adipose cells from the buffer. The quantity of 2-[^14C(U)]-deoxy-D-glucose contained in the adipose cell layer was determined with a liquid scintillation counter to determine the quantity of the incorporated sugar. In this evaluation system, when insulin (100 nM) having the effect of reinforcing the sugar transportation was used, the effect was about 7 times as high as that obtained in the insulin-free control group.
The results of the evaluation of the sugar transportation activity obtained by using 100 μg/mL of the compound (I) of the present invention are shown in Table 3. The sugar transportation activity in Table 3 was evaluated on the basis of the reinforcing effect of insulin (100 nM). The sugar transportation activity A in Table 3 was determined in terms of the concentration (EC50: μg/mL) of a test compound, having a reinforcing effect corresponding to 50% on the basis of the reinforcing effect of insulin (100 nM) having a reinforcing effect of 100%.
The symbols in Table 3 are as follows: • No: Compound No. in Tables 1 and 2, and • A: sugar transportation activity.
As to `CCC(=O)N1[C@@H]2CCCC[C@H]2NC2=C(C(=O)NC2)[C@H]1c1ccccc1OC(C)C` [Compound 58], the “A: sugar transportation activity (EC50)” value came out at 2 µg/mL. The figure for `CCOCC(=O)N1[C@@H]2CCCC[C@H]2NC2=C(C(=O)NC2)[C@H]1c1ccccc1OC(C)C` [Compound 59] is 2 µg/mL. Turning to `COC(=O)N1[C@@H]2CCCC[C@H]2NC2=C(C(=O)NC2)[C@H]1c1ccccc1OC(C)C` [Compound 60], the “A: sugar transportation activity (EC50)” value was determined as 4.8 µg/mL.

`CC(=O)N1[C@@H]2CCCC[C@H]2NC2=C(C(=O)NC2)[C@H]1c1ccccc1OC1CC1` [Compound 61]: the “A: sugar transportation activity (EC50)” value was 0.9 µg/mL.

In the case of `CCOCC(=O)N1[C@@H]2CCCC[C@H]2NC2=C(C(=O)NC2)[C@H]1c1ccccc1OCc1ccccc1` [Compound 63], the “A: sugar transportation activity (EC50)” value amounted to 4 µg/mL. The figure for `CC(=O)N1[C@@H]2CCCC[C@H]2NC2=C(C(=O)NC2)[C@H]1c1ccccc1OCc1ccccc1` [Compound 64] is 3.6 µg/mL. `CCOCC(=O)N1[C@@H]2CCCC[C@H]2NC2=C(C(=O)NC2)[C@H]1c1ccccc1O` [Compound 65]: the “A: sugar transportation activity (EC50)” value was found to be 1 µg/mL. Under `CC(=O)N1[C@@H]2CCCC[C@H]2NC2=C(C(=O)NC2)[C@H]1c1ccccc1O` [Compound 66] stands 3.7 µg/mL. On to `O=C1NCC2=C1[C@@H](c1ccccc1OC(F)(F)F)N(C(=O)CO)[C@@H]1CCCC[C@H]1N2` [Compound 68], for which the “A: sugar transportation activity (EC50)” value is 2.7 µg/mL. The figure for `COCC(=O)N1[C@@H]2CCCC[C@H]2NC2=C(C(=O)NC2)[C@H]1c1ccccc1OC(F)(F)F` [Compound 69] is 2 µg/mL.

Turning to `CCC(=O)N1[C@@H]2CCCC[C@H]2NC2=C(C(=O)NC2)[C@H]1c1ccc(F)cc1OC` [Compound 70], the “A: sugar transportation activity (EC50)” value was 0.82 µg/mL. The figure for `CCOCC(=O)N1[C@@H]2CCCC[C@H]2NC2=C(C(=O)NC2)[C@H]1c1ccc(F)cc1OC` [Compound 71] is 7.8 µg/mL; for `COc1cc(F)ccc1[C@@H]1C2=C(CNC2=O)N[C@@H]2CCCC[C@H]2N1C(C)=O` [Compound 72] it is 8 µg/mL. For the compound `COc1cc(Cl)ccc1[C@@H]1C2=C(CNC2=O)N[C@@H]2CCCC[C@H]2N1C(C)=O` [Compound 73], the “A: sugar transportation activity (EC50)” value is 6 µg/mL. Under `COc1ccc(F)cc1[C@@H]1C2=C(CNC2=O)N[C@@H]2CCCC[C@H]2N1C(C)=O` [Compound 76] stands 10 µg/mL; under `COc1cccc([C@@H]2C3=C(CNC3=O)N[C@@H]3CCCC[C@H]3N2C(C)=O)c1OC` [Compound 77], 12 µg/mL; under `COc1ccc([C@@H]2C3=C(CNC3=O)N[C@@H]3CCCC[C@H]3N2C(C)=O)c(OC)c1` [Compound 78], 10 µg/mL. The figure for `Cc1ccccc1[C@@H]1C2=C(CNC2=O)N[C@@H]2CCCC[C@H]2N1C(=O)C(F)(F)F` [Compound 82] is 6 µg/mL; for `CCC(=O)N1[C@@H]2CCCC[C@H]2NC2=C(C(=O)NC2)[C@H]1c1ccccc1C` [Compound 83] it is 2 µg/mL; for `CCOCC(=O)N1[C@@H]2CCCC[C@H]2NC2=C(C(=O)NC2)[C@H]1c1ccccc1C` [Compound 84] it is 4 µg/mL. The figure for `CC(=O)OCC(=O)N1[C@@H]2CCCC[C@H]2NC2=C(C(=O)NC2)[C@H]1c1ccccc1C` [Compound 85] is 8 µg/mL; for `Cc1ccccc1[C@@H]1C2=C(CNC2=O)N[C@@H]2CCCC[C@H]2N1C(=O)CO` [Compound 86] it is 2.5 µg/mL; for `COCC(=O)N1[C@@H]2CCCC[C@H]2NC2=C(C(=O)NC2)[C@H]1c1ccccc1C` [Compound 87] it is 6 µg/mL. With `CCOC(=O)N1[C@@H]2CCCC[C@H]2NC2=C(C(=O)NC2)[C@H]1c1ccccc1C` [Compound 89], the “A: sugar transportation activity (EC50)” value is 7 µg/mL. As for `COC(=O)N1[C@@H]2CCCC[C@H]2NC2=C(C(=O)NC2)[C@H]1c1ccccc1C` [Compound 90], the “A: sugar transportation activity (EC50)” value stood at 2 µg/mL. The figure for `Cc1ccccc1[C@@H]1C2=C(CNC2=O)N(C)[C@@H]2CCCC[C@H]2N1C(=O)CO` [Compound 92] is 1.5 µg/mL; for `CCCC(=O)N1[C@@H]2CCCC[C@H]2NC2=C(C(=O)NC2)[C@H]1c1ccccc1CC` [Compound 93] it is 5 µg/mL. Under `CCC(=O)N1[C@@H]2CCCC[C@H]2NC2=C(C(=O)NC2)[C@H]1c1ccccc1CC` [Compound 94] stands 2.2 µg/mL; under `CCc1ccccc1[C@@H]1C2=C(CNC2=O)N[C@@H]2CCCC[C@H]2N1C(=O)CC(=O)OC` [Compound 95], 2 µg/mL; under `CCc1ccccc1[C@@H]1C2=C(CNC2=O)N[C@@H]2CCCC[C@H]2N1C(=O)COC` [Compound 97], 6 µg/mL. `CCc1ccccc1[C@@H]1C2=C(CNC2=O)N[C@@H]2CCCC[C@H]2N1C(=O)OC` [Compound 99]: the “A: sugar transportation activity (EC50)” value was determined as 4 µg/mL.

For the compound `CCc1ccccc1[C@@H]1C2=C(CNC2=O)N(CC)[C@@H]2CCCC[C@H]2N1C(C)=O` [Compound 102], the “A: sugar transportation activity (EC50)” value amounted to 5 µg/mL. Consider `O=C1NCC2=C1[C@@H](c1ccccc1C1CC1)N(C(=O)CO)[C@@H]1CCCC[C@H]1N2` [Compound 104], for which the “A: sugar transportation activity (EC50)” value came to 0.8 µg/mL. The figure for `CC(=O)N1[C@@H]2CCCC[C@H]2NC2=C(C(=O)NC2)[C@H]1c1cccc(F)c1C` [Compound 107] is 6 µg/mL.

On to `CCOCC(=O)N1[C@@H]2CCCC[C@H]2NC2=C(C(=O)NC2)[C@H]1c1cccc(Cl)c1C` [Compound 108], for which the “A: sugar transportation activity (EC50)” value amounted to 5 µg/mL. For the compound `O=C1NCC2=C1[C@@H](c1ccccc1Br)N(C(=O)CC(F)(F)F)[C@@H]1CCCC[C@H]1N2` [Compound 109], the “A: sugar transportation activity (EC50)” value came out at 0.5 µg/mL. `CCC(=O)N1[C@@H]2CCCC[C@H]2NC2=C(C(=O)NC2)[C@H]1c1ccccc1Br` [Compound 110]: the “A: sugar transportation activity (EC50)” value came out at 1.5 µg/mL. Under `COC(=O)CC(=O)N1[C@@H]2CCCC[C@H]2NC2=C(C(=O)NC2)[C@H]1c1ccccc1Br` [Compound 111] stands 1.5 µg/mL.

Take `CCOCC(=O)N1[C@@H]2CCCC[C@H]2NC2=C(C(=O)NC2)[C@H]1c1ccccc1Br` [Compound 112]: the “A: sugar transportation activity (EC50)” value was found to be 8.6 µg/mL. The figure for `COCC(=O)N1[C@@H]2CCCC[C@H]2NC2=C(C(=O)NC2)[C@H]1c1ccccc1Br` [Compound 113] is 6 µg/mL; for `CC(=O)N1[C@@H]2CCCC[C@H]2NC2=C(C(=O)NC2)[C@H]1c1ccccc1Br` [Compound 114] it is 6 µg/mL; for `CCC(=O)N1[C@@H]2CCCC[C@H]2NC2=C(C(=O)NC2)[C@H]1c1ccccc1Cl` [Compound 116] it is 3 µg/mL. The figure for `CCCC(=O)N1[C@@H]2CCCC[C@H]2NC2=C(C(=O)NC2)[C@H]1c1ccccc1Cl` [Compound 117] is 4 µg/mL; for `O=C1NCC2=C1[C@@H](c1ccccc1Cl)N(C(=O)CC(F)(F)F)[C@@H]1CCCC[C@H]1N2` [Compound 118] it is 0.5 µg/mL; for `COCC(=O)N1[C@@H]2CCCC[C@H]2NC2=C(C(=O)NC2)[C@H]1c1ccccc1Cl` [Compound 119] it is 5 µg/mL.

`CCOCC(=O)N1[C@@H]2CCCC[C@H]2NC2=C(C(=O)NC2)[C@H]1c1ccccc1Cl` [Compound 120]: the “A: sugar transportation activity (EC50)” value turned out to be 10.7 µg/mL. For the compound `COC(=O)CC(=O)N1[C@@H]2CCCC[C@H]2NC2=C(C(=O)NC2)[C@H]1c1ccccc1Cl` [Compound 121], the “A: sugar transportation activity (EC50)” value worked out at 2 µg/mL. The figure for `COC(=O)N1[C@@H]2CCCC[C@H]2NC2=C(C(=O)NC2)[C@H]1c1ccccc1Cl` [Compound 122] is 2.4 µg/mL.
